17 compounds from patent publication US4105659A, “1,2,3,4,5,6-Hexahydro-2,6-methano-3-benzazocines” (Sterling Drug Inc., priority 1964, dated 1978) can be followed below.

Counter-ions that a name gives are not always drawn. Like-named read-outs stand apart in the source and are kept apart here.

The test system of series [1] is analgesic effect of meperidine hydrochloride. Kind of series: Antagonism of meperidine analgesia, modified D'Amour-Smith test. Particulars: for dosage of antagonist which reduced the analgesic effect of meperidine by approximately 50 per cent: subcutaneous, rats, lactic acid acid-addition salt, versus 60 mg./kg. meperidine hydrochloride; for ED50: Rattus norvegicus, read-out: dosage of antagonist which reduced the analgesic effect of meperidine by approximately 50 per cent.

Series [2] is described as follows: Solubility, pH of solution and precipitation on pH adjustment or dilution. It counts as physicochemical. Conditions: for pH at which a precipitate formed: 1 percent solution, addition of N/10 sodium hydroxide. On the procedure: A. A mixture of 8.7 g. of racemic cis 1,2,3,4,5,6-hexahydro-6,11-dimethyl-8-hydroxy-2,6-methano-3-benzazocine (which is also known as racemic cis 2'-hydroxy-5,9-dimethyl-6,7-benzomorphan), 6.0 g of 1-bromo-3-methyl-2-butene, 5.0 g. of sodium bicarbonate, and 125 ml. of N,N-dimethylformamide was stirred and refluxed for approximately 41/2 hours. The reaction mixture was then filtered, and the solid on the filter was washed with ethanol. The filtrate and the wash liquor were combined, concentrated under reduced pressure, and then extracted with chloroform. The chloroform extract was concentrated under reduced pressure to yield a syrup which weighed 15.8 g. This syrup was dissolved in 120 ml. of diethyl ether and the resulting solution was filtered to remove approximately one-half gram of a brown amorphous solid. The filtrate was extracted with a mixture of 5 ml. of concentrated hydrochloric acid and 20 ml. of water. To the extract there was added 5 ml. of concentrated ammonium hydroxide solution and ice. A pale tan syrup separated from solution and after stirring, this syrup solidified. The resulting pale tan solid was collected and dried; it weighed 10.6 g. After two recrystallizations from a mixture of methyl alcohol and water, with charcoaling, this solid weighed 8.2 g. and melted at 145°-147° C. The product thus obtained was racemic cis 1,2,3,4,5,6-hexahydro-3-(3-methyl-2-butenyl)-6,11-dimethyl-8-hydroxy-2,6-methano-3-benzazocine (Formula II: Y = --CH2 --CH=C(CH3)2; R^3 = --H), having the molecular formula C19 H27 NO. This product was soluble in a mixture of 0.35 ml. of N/2 hydrochloric acid and 0.15 ml. of water to the extent of 10 percent, the pH of the 1 percent solution being 2.80; and when the pH of the 1 percent solution was gradually raised by addition of N/10 sodium hydroxide solution, a precipitate formed at pH 5.4. When the base was converted to the hydrochloride and was then regenerated from this salt it melted at 151°-153° C. The hydrochloride of this base melted at 245°-247° C. (dec.). and the cyclohexylsulfamate of this base melted at 163°-166° C. The base formed a grayish-yellowtannate.
The racemic trans product was converted to its hydrobromide, having the molecular formula C19 H27 NO·HBr, which was obtained as white needles which melted at 240°-241° C.
The dextro trans product was converted to its hydrochloride, having the molecular formula C19 H27 NO·HCl, which was obtained as white crystals which melted at 254°-255° C.
The levo trans product was converted to its hydrochloride, having the molecular formula C19 H27 NO·HCl, which was obtained as white crystals which melted at 254°-255° C. (dec.); this hydrochloride was soluble in water to the extent of 5 percent, the pH of a 1 percent aqueous solution being 5.7, a precipitate being formed when the 1 percent aqueous solution was adjusted to 7.0 by addition of N/10 sodium hydroxide solution.
A. A mixture of 9.25 g. of racemic cis 1,2,3,4,5,6-hexahydro-6-ethyl-11-methyl-8-hydroxy-2,6-methano-3-benzazocine, 6.0 g. of 1-bromo-3-methyl-2-butene, 125 ml. of N,N-dimethylformamide, and 5.0 g. of sodium bicarbonate was stirred and refluxed for approximately 41/2 hours. The reaction mixture was then filtered, and the solid collected on the filter was washed with ethanol. The filtrate and the wash liquor were combined and concentrated under reduced pressure. To the resulting residue there was added 50 ml. of diethyl ether, and the mixture was filtered. Approximately 0.6 g. of solid was collected on the filter, and 8.2 g. of brown solid separated from the filtrate and was collected by filtration. These two crops of solid (8.8 g.) were combined, 25 ml. of methanol was added, and the mixture was boiled. Only a small portion of the solid dissolved. This mixture was mixed with 25 ml. of water and chilled. The mixture was filtered to collect 8.3 g. of pale tan solid which melted at 156°-158° C. […]

Series [3] concerns analgesic effect of morphine sulfate. Kind of series: Antagonism of morphine analgesia, modified D'Amour-Smith test. Particulars: for ED50: Rattus norvegicus, sc, read-out: dosage of antagonist which reduced the analgesic effect of morphine by approximately 50 per cent; for dosage of antagonist which reduced the analgesic effect of morphine by approximately 50 per cent: subcutaneous, rats, lactic acid acid-addition salt, versus 15 mg./kg. morphine sulfate.

Series [4] in a line: Clinical analgesia in human subjects. It counts as in vivo. Conditions: for dose approximately equivalent to 10 mg. of morphine sulfate as an analgesic: parenterally in humans; for analgesia in human subjects: parenterally. On the procedure:
In human subjects, however, the compounds of Formulas I and II are valuable and effective agents for producing analgesia when administered in the general range of about 10 to 500 mg. per 70 kg. of subject weight, the dosage depending of course on the particular compound, the mode of administration, and the like. The following clinical results which were obtained in human subjects are illustrative. For oral administration the free base was used, and for parenteral (usually intramuscular) administration an aqueous solution of the lactate salt was used; the dosages are expressed in each instance in terms of milligrams of base per 70 kilograms of body weight of the human subject.

The mark [5] stands for this setting: ethanol, organic solvent or mixture, read-out: solubility in ethanol.
The mark [6] stands for this setting: water, read-out: solubility in water.

By solubility is commonly meant the concentration that dissolves in the medium under given conditions.

For the compound “racemic cis 1,2,3,4,5,6-hexahydro-3-(3-methyl-2-butenyl)-6-ethyl-11-methyl-8-cyclopropanecarbonyloxy-2,6-methano-3-benzazocine hydrochloride [Example 7C]”, the “dosage of antagonist which reduced the analgesic effect of meperidine by approximately 50 per cent” value in series [1] turned out to be 0.0022 mg/kg.
Take `CC(C)=CCN1CC[C@@]2(C)c3cc(O)ccc3C[C@@H]1[C@@H]2C` (relative stereo) [4A (cyclohexylsulfamate), racemic cis 1,2,3,4,5,6-hexahydro-3-(3-methyl-2-butenyl)-6,11-dimethyl-8-hydroxy-2,6-methano-3-benzazocine]: in series [1] (po), the ED50 amounted to 125 mg/kg.
On to `CC(C)=CCN1CC[C@@]2(C)c3cc(O)ccc3C[C@H]1C2C` (relative stereo) [4E (levo) hydrochloride, trans 1,2,3,4,5,6-hexahydro-3-(3-methyl-2-butenyl)-6,11-dimethyl-8-hydroxy-2,6-methano-3-benzazocine], for which, in series [2], the “pH of a 1 percent aqueous solution” value is given as 5.7 and the “pH at which a precipitate formed” value turned out to be 7.0. Moreover, the solubility in water in series [2] (water) came to 5%.
Consider `C=C(C)CN1CC[C@@]2(C)c3cc(O)ccc3C[C@@H]1[C@@H]2C` (relative stereo) [Example 8A, 1,2,3,4,5,6-Hexahydro-3-(2-methyl-2-propenyl)-6,11-dimethyl-8-hydroxy-2,6-methano-3-benzazocine], for which the ED50 in series [3] turned out to be 0.19 mg/kg; in series [1] (sc), 0.094 mg/kg.
In the case of `C=CCN1CC[C@@]2(CC)c3cc(O)ccc3C[C@@H]1[C@@H]2C` (relative stereo) [Example 1A, racemic cis 1,2,3,4,5,6-hexahydro-3-allyl-6-ethyl-11-methyl-8-hydroxy-2,6-methano-3-benzazocine], the values for the ED50 in series [3] and in series [1] (sc) were 0.044 mg/kg and 0.049 mg/kg, respectively. The “dose approximately equivalent to 10 mg. of morphine sulfate as an analgesic” value in series [4] was ~5 mg. Further, in series [4] (5 mg./kg. and 10 mg./kg.), the “analgesia in human subjects” value was “effective and satisfactory analgesia”.
For the compound `CCC12CCN(CC=C(C)C)C(Cc3ccc(O)cc31)C2C` (stereo not drawn) [7D (levo cis), levo cis 1,2,3,4,5,6-hexahydro-(3-methyl-2-butenyl)-6-ethyl-11-methyl-8-hydroxy-2,6-methano-3-benzazocine], the “dosage of antagonist which reduced the analgesic effect of meperidine by approximately 50 per cent” value in series [1] is 3.1 mg/kg.
Take `CC(C)=CCN1CC[C@@]2(C)c3cc(O)ccc3C[C@H]1C2C` (relative stereo) [4E (levo), trans 1,2,3,4,5,6-hexahydro-3-(3-methyl-2-butenyl)-6,11-dimethyl-8-hydroxy-2,6-methano-3-benzazocine]: in series [1], the “dosage of antagonist which reduced the analgesic effect of meperidine by approximately 50 per cent” value stood at 0.55 mg/kg.
For `CC(C)=CCN1CC[C@@]2(C)c3cc(O)ccc3C[C@@H]1[C@H]2C` (relative stereo) [4E (racemic) hydrobromide, trans 1,2,3,4,5,6-hexahydro-3-(3-methyl-2-butenyl)-6,11-dimethyl-8-hydroxy-2,6-methano-3-benzazocine], the solubility in series [2] (setting [5]) is 10000 µg/mL; in series [2] (setting [6]), < 2500 µg/mL.
For `CC(C)=CCN1CC[C@@]2(C)c3cc(O)ccc3C[C@H]1C2C` (relative stereo) [4E (dextro), trans 1,2,3,4,5,6-hexahydro-3-(3-methyl-2-butenyl)-6,11-dimethyl-8-hydroxy-2,6-methano-3-benzazocine], the “dosage of antagonist which reduced the analgesic effect of meperidine by approximately 50 per cent” value in series [1] was determined as 13.0 mg/kg.
On to `CCC12CCN(CC=C(C)C)C(Cc3ccc(O)cc31)C2C` (stereo not drawn) [7D (dextro cis), dextro cis 1,2,3,4,5,6-hexahydro-(3-methyl-2-butenyl)-6-ethyl-11-methyl-8-hydroxy-2,6-methano-3-benzazocine], for which the “dosage of antagonist which reduced the analgesic effect of meperidine by approximately 50 per cent” value in series [1] turned out to be 19.5 mg/kg.
With `CC(C)=CCN1CC[C@]2(C)c3cc(O)ccc3C[C@H]1C2C` (relative stereo) [4D (dextro), cis 1,2,3,4,5,6-hexahydro-3-(3-methyl-2-butenyl)-6,11-dimethyl-8-hydroxy-2,6-methano-3-benzazocine], the “dosage of antagonist which reduced the analgesic effect of morphine by approximately 50 per cent” value in series [3] was 21.0 mg/kg. The “dosage of antagonist which reduced the analgesic effect of meperidine by approximately 50 per cent” value in series [1] was found to be 18.0 mg/kg.
Consider `CC[C@]12CCN(CC=C(C)C)[C@H](Cc3ccc(O)cc31)[C@@H]2C` (relative stereo) [Example 7A, racemic cis 1,2,3,4,5,6-hexahydro-3-(3-methyl-2-butenyl)-6-ethyl-11-methyl-8-hydroxy-2,6-methano-3-benzazocine], for which the ED50 in series [3] worked out at 11.6 mg/kg; in series [1] (sc) it was 10.9 mg/kg. Besides, the “dose approximately equivalent to 10 mg. of morphine sulfate as an analgesic” value in series [4] was ~40 mg. In addition, the “analgesia in human subjects” value in series [4] (10 mg./70 kg. to 80 mg./70 kg.) is “effective and satisfactory analgesia”. Further, the solubility was < 2500 µg/mL in series [2] (dilute hydrochloric acid, mixture of 0.34 ml. of N/2 hydrochloric acid and 19.66 ml. of water, read-out: solubility in dilute hydrochloric acid); < 10000 µg/mL in series [2] (setting [5]).
On to `CC(C)=CCN1CC[C@@]2(C)c3cc(O)ccc3C[C@@H]1[C@H]2C` (relative stereo) [4E (racemic), trans 1,2,3,4,5,6-hexahydro-3-(3-methyl-2-butenyl)-6,11-dimethyl-8-hydroxy-2,6-methano-3-benzazocine], for which the ED50 in series [1] (sc) was determined as 3.3 mg/kg.
As to `C=CCN1CC[C@@]2(CC)c3cc(OC(C)=O)ccc3C[C@@H]1[C@@H]2C` (relative stereo) [Example 1B, racemic cis 1,2,3,4,5,6-hexahydro-3-allyl-6-ethyl-11-methyl-8-acetoxy-2,6-methano-3-benzazocine], in series [1] (sc), the ED50 is 0.027 mg/kg.
Regarding `C=C(C)CN1CC[C@@]2(C)c3cc(O)ccc3C[C@@H]1[C@@H]2C` (relative stereo) [8A hydrochloride, 1,2,3,4,5,6-Hexahydro-3-(2-methyl-2-propenyl)-6,11-dimethyl-8-hydroxy-2,6-methano-3-benzazocine], the solubility in series [2] (setting [5]) is < 10000 µg/mL; in series [2] (setting [6]), < 2500 µg/mL.
In the case of `CC(C)=CCN1CC[C@@]2(C)c3cc(O)ccc3C[C@H]1C2C` (relative stereo) [4E (dextro) hydrochloride, trans 1,2,3,4,5,6-hexahydro-3-(3-methyl-2-butenyl)-6,11-dimethyl-8-hydroxy-2,6-methano-3-benzazocine], in series [2], the “pH of a 1 percent aqueous solution” value is on record as 5.6 and the “pH at which a precipitate formed” value was > 6.9. Further, the solubility in water in series [2] (water) is reported as 5%.
`CC(C)=CCN1CC[C@]2(C)c3cc(O)ccc3C[C@H]1C2C` (relative stereo) [4D (levo), cis 1,2,3,4,5,6-hexahydro-3-(3-methyl-2-butenyl)-6,11-dimethyl-8-hydroxy-2,6-methano-3-benzazocine]: the “dosage of antagonist which reduced the analgesic effect of morphine by approximately 50 per cent” value in series [3] stood at 4.3 mg/kg. In addition, the “dosage of antagonist which reduced the analgesic effect of meperidine by approximately 50 per cent” value in series [1] turned out to be 1.05 mg/kg.
